Test in all cases: growth of human tumour cells (NCI), 48 h
Experiment [1] relates to HOP-18.
Experiment [2] relates to DLD-1.
Experiment [3] deals with LXFL 529.
In experiment [4] the test system is SNB-78.
For experiment [5], the system named is M19-MEL.
The subject of experiment [6] is DMS-273.
For experiment [7], the system named is KM-20L2.
Experiment [8] deals with RXF 631.
Experiment [9] has as its system XF498.

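Assay format: 96-well plates, 48-hour exposure. GI50 is the concentration that inhibits growth by half.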 Activity calls are given as the source filed them. No stated cut-off is given here; in the data, active = GI50 up to about 1.1 µM and inactive = higher. Non-standard residues stand in square brackets, D forms with d. Residues, ends and D or L forms follow the SMILES beside them. ξ: configuration not given here. *: point of attachment. ξNMeF = CNC(Cc1ccccc1)C(=O)O; NMeV = CN[C@H](C(=O)O)C(C)C; Boc = CC(C)(C)OC(=O)*; OBn = c1ccc(CO*)cc1

With `CCOC(=O)NC(=O)c1cn(CCCCCOC(=O)NCCCCCCNC(=O)OCCCCCn2cc(C(=O)NC(=O)OCC)c(=O)[nH]c2=O)c(=O)[nH]c1=O`, the GI50 in experiment [1], in experiment [2], in [3], in experiment [4], in experiment [5] and in experiment [6] was > 100 µM (inactive) throughout. For the same compound, the GI50 in experiment [7] is > 100 µM (inactive).
Take `CC(=O)c1ccc(NC(=O)C(=O)CC(=O)c2sc(-n3nc(-c4ccccc4)cc3-c3ccccc3)nc2C)cc1`: the GI50 in experiment [2], in experiment [3], in [8], in experiment [4], in experiment [5] and in experiment [6] was > 100 µM (inactive) in each case. The GI50 in experiment [7] was > 100 µM (inactive).
Consider `O=C1c2ccccc2C(=O)C2C1C1C(=O)c3ccccc3C(=O)C21` (stereo not drawn), for which the GI50 in experiment [1] is 8.69 µM (inactive); in experiment [2], 15.2 µM (inactive); in [3], > 100 µM (inactive); in experiment [8] it was > 100 µM (inactive); in [5], 45.4 µM (inactive); in experiment [6], > 100 µM (inactive). Further, the GI50 in [7] is > 100 µM (inactive).
With `CC(C)[C@@H](C(=O)N(C)[C@H](C(=O)N1CCC[C@H]1C(=O)OCc1ccccc1)C(C)C)N(C)C(=O)C(Cc1ccccc1)N(C)C(=O)[C@H](NC(=O)OC(C)(C)C)C(C)C` (stereo partly drawn) (Boc-[dV][ξNMeF][NMeV][NMeV]P-OBn), the GI50 was 13.4 µM (inactive) in [9]; > 72.6 µM (inactive) in [1]; > 31.6 µM (inactive) in experiment [2]; 42.9 µM (inactive) in experiment [3]; > 31.6 µM (inactive) in experiment [5]; > 31.6 µM (inactive) in experiment [6]. Besides, the GI50 in experiment [7] was > 31.6 µM (inactive).
As for `COC(=O)C(=O)C(C(=O)C(=O)Nc1ccc(Cl)cc1C)c1nc2ccc(C(=O)c3ccccc3)cc2nc1O` (stereo not drawn), the GI50 is > 100 µM (inactive) in [1]; 55.8 µM (inactive) in experiment [2]; 65.2 µM (inactive) in [3]; > 100 µM (inactive) in experiment [8]; > 100 µM (inactive) in experiment [4]; > 100 µM (inactive) in [5]. For the same compound, the GI50 is 63.4 µM (inactive) in experiment [6] and > 100 µM (inactive) in experiment [7].
For `COC1CCC2C(NS(=O)(=O)c3ccc(C)cc3)CCCC2O1.Cc1ccc(S(=O)(=O)NC(C)(C)C=O)cc1` (stereo not drawn), the GI50 in [2] was 20.3 µM (inactive); in experiment [8], 10.2 µM (inactive); in [4], > 34.5 µM (inactive); in experiment [5] it was 12.7 µM (inactive); in [6], 8.41 µM (inactive); in experiment [7], 32.6 µM (inactive).
In the case of `O=c1[nH]c2c(O)cccc2c2cc3c(c(O)c12)OCO3` [NARCIPRIMINE], the GI50 in experiment [9] is 15.6 µM (inactive); in experiment [1], 0.0524 µM (active); in [2], 14.6 µM (inactive); in experiment [3] it was 18.3 µM (inactive); in experiment [4] it was 21.3 µM (inactive); in experiment [5], 20.3 µM (inactive). Besides, the figures for the GI50 in [6] and in experiment [7] were 18.7 µM (inactive) and 12.8 µM (inactive), respectively.
As for `COC1OCC(O)C(NC(=O)N(C)N=O)C1O` (stereo not drawn), the GI50 in experiment [9], in experiment [1], in experiment [2], in [4], in [5] and in experiment [6] was > 100 µM (inactive) in each case. For the same compound, the GI50 in [7] is > 100 µM (inactive).
As for `C[C@]12CC[C@H](OC3CCCCO3)CC1=CC[C@@H]1C2CC[C@]2(C)/C(=N/O)CCC12` (stereo partly drawn), the GI50 in experiment [9] was 40.6 µM (inactive); in experiment [1] it was 16 µM (inactive); in experiment [2], 48.2 µM (inactive); in experiment [3] it was 16.6 µM (inactive); in [4], 20.7 µM (inactive); in experiment [6] it was 17.5 µM (inactive). Moreover, in experiment [7], the GI50 was 12.6 µM (inactive).
With `COC(=O)[C@]1(C)C(OC)=CC(=O)C2C1[C@H]1CCC[C@@H]21` (stereo partly drawn), the GI50 in experiment [9], in experiment [1], in experiment [2], in experiment [3], in experiment [4] and in experiment [5] was > 100 µM (inactive) in each case. Further, the GI50 in [7] was > 100 µM (inactive).
For the compound `CS(=O)(=O)OCCN(CCOS(C)(=O)=O)c1ccc(C=O)cc1`, the GI50 in experiment [9] is 1.97 µM (inactive); in [1] it was 9.16 µM (inactive); in experiment [2], 18.5 µM (inactive); in experiment [3], 18.1 µM (inactive); in experiment [4], 27.2 µM (inactive); in [5] it was 12.6 µM (inactive). Moreover, the figures for the GI50 in experiment [6] and in experiment [7] were 0.314 µM (active) and 3.28 µM (inactive), respectively.
Turning to `CN1Nc2ccccc2CC1=O`, the GI50 in experiment [9], in experiment [1], in experiment [2], in experiment [4], in experiment [5] and in experiment [6] was > 100 µM (inactive) each time. Also, the GI50 in experiment [7] is > 100 µM (inactive).
For `O=C(CC(=O)c1ccccc1NC1=Cc2ccccc2C(=O)C1=O)C(=O)NC1=C(Cl)C(=O)c2ccccc2C1=O`, the GI50 is 2.49 µM (inactive) in experiment [9]; 2.38 µM (inactive) in experiment [2]; 2.46 µM (inactive) in experiment [3]; 4.37 µM (inactive) in experiment [8]; 2.16 µM (inactive) in experiment [4]; 0.225 µM (active) in experiment [5]. In addition, the results for the GI50 in experiment [6] and in experiment [7] were 2.34 µM (inactive) and 9.77 µM (inactive), respectively.
For the compound `Cc1nc2nn(Cc3ccccc3)cc2c(=O)o1`, the GI50 in experiment [9] is 74.5 µM (inactive); in experiment [2], > 100 µM (inactive); in experiment [3] it was > 100 µM (inactive); in [8] it was > 100 µM (inactive); in [4] it was > 100 µM (inactive); in experiment [5], > 100 µM (inactive). Also, the GI50 in experiment [6] and in experiment [7] was > 100 µM (inactive) each time.
`CC1(C)C2=CCCC(=O)[C@@]2(C)CC[C@@H]1O`: the GI50 in [9], in [1], in experiment [2], in experiment [3], in [4] and in experiment [5] was > 100 µM (inactive) each time. Besides, the GI50 in [6] and in [7] was > 100 µM (inactive) throughout.
Turning to `COP1(=O)Oc2ccccc2C(=O)C(C(F)(F)F)(C(F)(F)F)O1` (stereo not drawn), the GI50 was 85.9 µM (inactive) in experiment [9]; > 100 µM (inactive) in [2]; > 100 µM (inactive) in experiment [3]; > 100 µM (inactive) in experiment [5]; > 100 µM (inactive) in experiment [6]; > 100 µM (inactive) in [7].
On to `Cc1ccc(S(=O)(=O)NNC(=O)c2sc(-c3nc(C)c(C(=O)NNS(=O)(=O)c4ccc(C)cc4)s3)nc2C)cc1`, for which the GI50 is 73.8 µM (inactive) in experiment [2]; 62.8 µM (inactive) in experiment [3]; > 100 µM (inactive) in experiment [4]; > 100 µM (inactive) in [5]; > 100 µM (inactive) in experiment [7].
With `Cc1cc2c(c(C(N)=O)c1C)-c1cccc(F)c1C2=O`, the GI50 is 57.3 µM (inactive) in [9]; > 100 µM (inactive) in experiment [2]; > 100 µM (inactive) in experiment [3]; > 100 µM (inactive) in experiment [4]; > 100 µM (inactive) in experiment [5]; > 100 µM (inactive) in experiment [6]. Moreover, in experiment [7], the GI50 is > 100 µM (inactive).
Take `CCOC(=O)C(=Cc1ccc(Oc2ccccc2)cc1)C(=O)OCC`: the GI50 in [9] is 4.32 µM (inactive); in [1], 13.8 µM (inactive); in experiment [2] it was 2.14 µM (inactive); in experiment [3], 2.29 µM (inactive); in [8], 3.03 µM (inactive); in [4] it was 5.7 µM (inactive). Further, the GI50 is 1.69 µM (inactive) in experiment [6] and 4.65 µM (inactive) in experiment [7].
For `O=c1cc(/C=C/c2ccccc2)c2ccc(O/C(=C\c3ccccc3)c3nc4ccccc4c(=O)o3)cc2o1`, the GI50 in experiment [9] was 14.9 µM (inactive); in experiment [2], 26.7 µM (inactive); in experiment [3] it was 14.8 µM (inactive); in [8], 28.1 µM (inactive); in experiment [4], 19.5 µM (inactive); in experiment [5], 25.3 µM (inactive). In addition, the GI50 in experiment [6] was 23 µM (inactive); in experiment [7], 31.5 µM (inactive).
For the compound `O=C(N/C(=C\c1ccccc1Cl)c1nc2ccccc2[nH]1)c1ccccc1`, the GI50 in experiment [9] is 23.8 µM (inactive); in experiment [2], 30.2 µM (inactive); in experiment [3], 21.9 µM (inactive); in experiment [8], 26.5 µM (inactive); in experiment [4], 45.6 µM (inactive); in experiment [5], 33 µM (inactive). The GI50 in experiment [7] is 22.8 µM (inactive).
With `CC(=O)OCC1OC(n2c(-c3ccc(C)cc3)cc(-c3ccccc3)c(C#N)c2=O)C(OC(C)=O)C(OC(C)=O)C1OC(C)=O` (stereo not drawn), the GI50 in experiment [9] was 86.9 µM (inactive); in experiment [2] it was > 100 µM (inactive); in experiment [3], > 100 µM (inactive); in experiment [8], > 100 µM (inactive); in experiment [4], > 100 µM (inactive); in [5], > 100 µM (inactive). In addition, the GI50 in [7] is > 100 µM (inactive).
On to `COC(=O)C[C@](O)(CCC(C)(C)O)C(=O)O[C@@H]1C(OC)=C[C@]23CCCN2CCc2cc4c(cc2[C@H]13)OCO4` [HARRINGTONINE], for which the GI50 in [9] was < 0.01 µM (active); in [1] it was 0.229 µM (active); in experiment [2], 0.121 µM (active); in experiment [4] it was 0.256 µM (active); in experiment [5] it was 0.107 µM (active); in experiment [6], 0.0288 µM (active). In addition, the GI50 in [7] is 0.0843 µM (active).
On to `Nc1nc(=O)[nH]c2c1cnn2Cc1ccccc1`, for which the GI50 in experiment [9] was > 100 µM (inactive); in [1] it was > 100 µM (inactive); in experiment [2] it was > 100 µM (inactive); in experiment [3], > 100 µM (inactive); in experiment [8], > 100 µM (inactive); in [4], 1.46 µM (inactive). For the same compound, the GI50 was > 100 µM (inactive) in experiment [6] and 1.62 µM (inactive) in experiment [7].

For the origin of these results see ChEMBL document CHEMBL1201862, “PubChem BioAssay data set” (2004).
